Experimental data as given in ChEMBL document CHEMBL1201862, “PubChem BioAssay data set” (2004).
Activity calls are given as the source filed them.

Columns and labels:
[1] = biological target: Dual specificity protein phosphatase 3 (Homo sapiens, UniProt P51452); assay: VHR1 inhibitor Ki determination, SAR follow-up, biochemical, colorimetric (AID 2004)
Large T antigen = Large T antigen (Simian virus 40, UniProt P03070); assay: A confirmatory biochemical assay using the ADP-Hunter methodology, purified TAg, and ATP to quantify activity of synthesized compounds that inhibit the ATPase activity of Tag (3). [Related pubchem assays (depositor defined):AID1903, AID1909, AID2102, AID2501, AID2615, AID2775, AID435001, AID449729]; design: species or system Betapolyomavirus macacae
Sequence of Large T antigen (P03070 whole entry): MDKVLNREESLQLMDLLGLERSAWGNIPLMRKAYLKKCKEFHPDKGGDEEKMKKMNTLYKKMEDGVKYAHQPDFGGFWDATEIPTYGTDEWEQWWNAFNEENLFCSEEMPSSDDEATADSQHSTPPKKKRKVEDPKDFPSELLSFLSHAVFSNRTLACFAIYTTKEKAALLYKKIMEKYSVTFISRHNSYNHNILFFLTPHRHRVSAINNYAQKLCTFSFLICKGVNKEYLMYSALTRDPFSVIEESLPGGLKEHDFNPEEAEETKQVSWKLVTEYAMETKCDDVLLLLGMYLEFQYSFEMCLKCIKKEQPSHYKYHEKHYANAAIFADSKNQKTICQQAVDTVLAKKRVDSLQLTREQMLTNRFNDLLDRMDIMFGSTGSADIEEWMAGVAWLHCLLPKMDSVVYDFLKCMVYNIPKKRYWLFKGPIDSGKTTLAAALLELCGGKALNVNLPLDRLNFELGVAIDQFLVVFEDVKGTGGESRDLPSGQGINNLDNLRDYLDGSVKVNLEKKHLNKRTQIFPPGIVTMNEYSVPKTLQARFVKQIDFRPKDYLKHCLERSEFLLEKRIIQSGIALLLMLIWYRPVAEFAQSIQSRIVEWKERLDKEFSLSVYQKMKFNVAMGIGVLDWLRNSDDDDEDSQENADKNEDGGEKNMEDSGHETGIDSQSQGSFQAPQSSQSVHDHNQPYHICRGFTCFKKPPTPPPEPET

[2] = biological target: T1, Kappa-type opioid receptor (Homo sapiens, UniProt P41145); assay type: functional
T1 sequence (P41145 whole entry): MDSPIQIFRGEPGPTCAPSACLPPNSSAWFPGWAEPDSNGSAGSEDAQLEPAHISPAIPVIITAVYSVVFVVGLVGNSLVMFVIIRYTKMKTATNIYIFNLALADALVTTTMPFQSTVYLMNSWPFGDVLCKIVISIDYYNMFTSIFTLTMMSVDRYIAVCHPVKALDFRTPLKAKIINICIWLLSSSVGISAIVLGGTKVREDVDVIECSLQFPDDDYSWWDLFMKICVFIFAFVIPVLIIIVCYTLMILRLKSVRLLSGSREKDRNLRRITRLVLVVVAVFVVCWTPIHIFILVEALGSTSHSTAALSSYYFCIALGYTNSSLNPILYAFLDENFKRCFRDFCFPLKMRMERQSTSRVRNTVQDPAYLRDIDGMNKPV

[3] = biological target: T2, Delta-type opioid receptor (Homo sapiens, UniProt P41143); assay: DOR antagonists, SAR follow-up, image-based (AID 2357); assay type: functional
T2 sequence (P41143 whole entry): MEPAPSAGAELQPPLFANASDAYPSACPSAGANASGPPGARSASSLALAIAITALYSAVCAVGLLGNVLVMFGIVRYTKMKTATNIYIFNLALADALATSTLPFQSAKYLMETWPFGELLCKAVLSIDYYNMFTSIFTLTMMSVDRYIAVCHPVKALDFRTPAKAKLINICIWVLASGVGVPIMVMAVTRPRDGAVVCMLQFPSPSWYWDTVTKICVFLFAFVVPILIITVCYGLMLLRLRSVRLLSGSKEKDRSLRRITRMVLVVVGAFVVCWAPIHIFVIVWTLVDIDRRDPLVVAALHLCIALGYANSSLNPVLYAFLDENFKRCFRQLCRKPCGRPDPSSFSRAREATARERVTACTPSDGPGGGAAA

Mu-type opioid receptor [4] = biological target: T3, Mu-type opioid receptor (Homo sapiens, UniProt P35372); assay: MOR agonists by imaging, SAR follow-up, image-based (AID 2352); assay type: functional
T3 sequence (P35372 whole entry): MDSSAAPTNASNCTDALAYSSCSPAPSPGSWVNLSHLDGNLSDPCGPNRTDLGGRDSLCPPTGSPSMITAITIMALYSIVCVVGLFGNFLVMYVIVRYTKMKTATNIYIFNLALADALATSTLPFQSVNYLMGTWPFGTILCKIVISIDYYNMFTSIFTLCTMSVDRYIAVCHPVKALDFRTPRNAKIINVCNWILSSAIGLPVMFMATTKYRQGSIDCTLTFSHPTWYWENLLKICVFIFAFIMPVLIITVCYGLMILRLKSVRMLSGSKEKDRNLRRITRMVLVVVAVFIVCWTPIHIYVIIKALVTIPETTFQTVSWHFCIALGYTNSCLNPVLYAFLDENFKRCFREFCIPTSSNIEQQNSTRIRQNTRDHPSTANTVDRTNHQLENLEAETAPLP

[5] = biological target: T1, Kappa-type opioid receptor; assay: KOR antagonists by imaging, SAR follow-up, image-based (AID 2348); assay type: functional
[6] = biological target: T2, Delta-type opioid receptor; assay: DOR agonists, SAR follow-up, image-based (AID 2370); assay type: functional
[7] = biological target: T1, Kappa-type opioid receptor; assay type: functional; remark: listed apart in the source
Mu-type opioid receptor [8] = biological target: T3, Mu-type opioid receptor; assay: MOR antagonists, SAR follow-up, image-based (AID 2420); assay type: functional;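 also: compounds added before stimulation of receptor with agonist DAMGO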
Caspase-6 = biological target: T4, Caspase-6 (Homo sapiens, UniProt P55212); assay: human caspase-6 inhibitors, dose response, biochemical, VEID-R110 fluorescence, cherry-pick (AID 720632)
T4 sequence (P55212 whole entry): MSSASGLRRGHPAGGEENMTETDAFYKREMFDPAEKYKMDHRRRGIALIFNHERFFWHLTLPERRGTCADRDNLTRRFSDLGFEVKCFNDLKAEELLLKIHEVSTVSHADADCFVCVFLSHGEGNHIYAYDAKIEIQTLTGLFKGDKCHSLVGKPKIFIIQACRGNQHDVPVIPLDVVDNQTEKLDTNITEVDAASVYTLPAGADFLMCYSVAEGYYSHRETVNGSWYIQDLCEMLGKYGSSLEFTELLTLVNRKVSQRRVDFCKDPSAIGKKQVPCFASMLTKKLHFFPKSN

CHO = assay: cytotoxicity in TLR9-MyD88 CHO cells, dose response, cytotoxicity control for TLR9-MyD88 binding inhibitor project, cell-based, luminescence (AID 588339); assay type: functional, hamster; settings: Cricetulus griseus;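 also: CHO cells stably coexpressing TLR9 and MyD88 fusions from primary screen; compound exposure lasted 48 hours before viability readout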
ORF 73 = biological target: T5, ORF 73 (Human herpesvirus 8, UniProt O40947); assay: inhibitors of C-LANA binding to LBS DNA, dose response, biochemical, fluorescence polarization, cherry-picked samples (AID 504725); design: species or system Human gammaherpesvirus 8;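 also: fluorescence polarization of a labeled DNA duplex reporting LANA DNA binding; potency is for inhibitors that block LANA binding to the DNA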
T5 sequence (O40947 whole entry): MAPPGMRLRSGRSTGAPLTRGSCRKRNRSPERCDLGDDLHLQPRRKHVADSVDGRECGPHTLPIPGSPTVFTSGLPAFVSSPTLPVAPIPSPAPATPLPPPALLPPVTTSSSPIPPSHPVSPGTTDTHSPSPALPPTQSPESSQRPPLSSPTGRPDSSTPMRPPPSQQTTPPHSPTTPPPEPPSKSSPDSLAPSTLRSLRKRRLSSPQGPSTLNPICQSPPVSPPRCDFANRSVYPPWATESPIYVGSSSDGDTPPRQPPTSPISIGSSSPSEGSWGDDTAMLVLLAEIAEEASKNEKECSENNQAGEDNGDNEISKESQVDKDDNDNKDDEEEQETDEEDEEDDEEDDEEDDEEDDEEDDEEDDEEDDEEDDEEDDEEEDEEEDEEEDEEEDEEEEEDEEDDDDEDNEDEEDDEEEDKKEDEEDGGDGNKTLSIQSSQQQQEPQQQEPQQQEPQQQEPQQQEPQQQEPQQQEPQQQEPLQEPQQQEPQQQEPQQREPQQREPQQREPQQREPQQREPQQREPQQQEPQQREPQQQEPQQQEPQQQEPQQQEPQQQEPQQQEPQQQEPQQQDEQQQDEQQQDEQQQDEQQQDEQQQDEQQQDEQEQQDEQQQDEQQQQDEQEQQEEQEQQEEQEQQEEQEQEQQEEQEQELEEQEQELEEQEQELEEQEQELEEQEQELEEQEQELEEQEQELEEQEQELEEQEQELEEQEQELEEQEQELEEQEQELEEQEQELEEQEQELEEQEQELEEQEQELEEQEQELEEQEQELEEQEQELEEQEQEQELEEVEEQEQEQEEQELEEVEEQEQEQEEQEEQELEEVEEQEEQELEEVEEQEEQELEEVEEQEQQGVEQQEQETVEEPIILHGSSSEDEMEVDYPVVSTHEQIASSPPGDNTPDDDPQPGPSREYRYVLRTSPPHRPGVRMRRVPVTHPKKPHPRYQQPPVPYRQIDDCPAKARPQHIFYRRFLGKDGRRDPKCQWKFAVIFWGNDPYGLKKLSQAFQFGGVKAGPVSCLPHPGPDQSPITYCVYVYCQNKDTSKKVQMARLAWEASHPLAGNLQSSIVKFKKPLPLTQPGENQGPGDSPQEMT

HeLa = assay: HeLa cell cytotoxicity, dose response, cytotoxicity control, 24 h, cherry-picked samples (AID 504726); assay type: functional, cell-based; settings: Homo sapiens;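 also: potency for cytotoxicity as loss of luminescence signal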
[9] = Luminescence-based dose response cell-based high throughput screening assay for cytotoxic compounds using the IEC-6 intestinal epithelial cell line. [Related pubchem assays: 1858 (Summary AID.), 1825 (Counterscreen.), 1907 (Confirmation screen.)]; assay type: functional
[10] = inhibitors of SNCA 5'UTR-driven translation, confirmation, luminescence, H4 neuroglioblastoma cells, dose confirmation (AID 2454); assay type: functional, cell-based;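 also: H4 neuroglioblastoma cells carrying an alpha-synuclein 5'UTR luciferase reporter; potency for inhibition of the luciferase signal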
cells = assay type: functional, cell-based
[11] = Luminescence Cell-Based Dose Response HTS to Identify Inhibitors of 5'UTR Stem-Loop Driven Prion Protein mRNA Translation in H4 Neuroglioblastoma Cells. [Related pubchem assays: 1827 (Project Summary), 1813 (Primary HTS)]; assay type: functional
[12] = luciferase reporter signal reduction – luminescence, H4-C neuroglioblastoma cells, dose response (AID 2458); assay type: functional, cell-based;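 also: H4 neuroglioblastoma cells stably carrying a luciferase reporter gene fusion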
[13] = control 3'UTR Renilla luciferase suppression, dose response, counter-screen for Shn3 inhibitor project, cell-based, Clone20-Shn3RL, cherry-picked (AID 624133); assay type: functional
[14] = inhibitors of SNCA 5'UTR-driven reporter translation, confirmation, H4 neuroglioma cells, luminescence (AID 1988); assay type: functional, cell-based
[15] = biological target: Scavenger receptor class B member 1 (Mus musculus, UniProt Q61009); assay: inhibitors of SR-BI mediated HDL lipid uptake, dose response, ldlA[mSR-BI] cells, fluorescence, cherry pick (AID 493194); assay type: functional, cell-based;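 also: cellular uptake of fluorescent DiI-labeled HDL measured as cell fluorescence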
Sequence of Scavenger receptor class B member 1 (Q61009 whole entry): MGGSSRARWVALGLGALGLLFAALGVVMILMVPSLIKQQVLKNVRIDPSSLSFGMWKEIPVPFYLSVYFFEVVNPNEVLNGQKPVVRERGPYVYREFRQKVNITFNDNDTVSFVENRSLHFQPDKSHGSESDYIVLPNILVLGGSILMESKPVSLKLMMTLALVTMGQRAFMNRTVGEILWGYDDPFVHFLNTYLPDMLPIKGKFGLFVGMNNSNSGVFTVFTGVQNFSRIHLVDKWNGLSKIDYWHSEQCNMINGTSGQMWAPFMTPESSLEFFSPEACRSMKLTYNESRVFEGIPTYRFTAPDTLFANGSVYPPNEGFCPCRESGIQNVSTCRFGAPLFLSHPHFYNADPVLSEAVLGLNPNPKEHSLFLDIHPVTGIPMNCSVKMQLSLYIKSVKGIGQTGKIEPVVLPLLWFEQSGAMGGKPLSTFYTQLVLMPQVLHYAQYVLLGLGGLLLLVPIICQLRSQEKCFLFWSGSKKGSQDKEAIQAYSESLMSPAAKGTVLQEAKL

[16] = Shn3 3'UTR reporter inhibitors, dose response, cell-based, Clone20 osteoblasts, firefly luciferase, cherry-picked (AID 624132); assay type: functional;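 also: firefly luciferase luminescence from reporter carrying the Shn3 3'UTR in osteoblasts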
[17] = cytotoxicity in HEK-293T cells, dose response, cytotoxicity control for TCR NF-kB inhibitor project, luminescence, T-cell screen hits (AID 489026); assay type: functional, cell-based;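 also: cells exposed to compound about 14 hours before the viability readout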
[18] = inhibition of K1F phage lysis, E. coli UTI89, bacterial capsule biogenesis inhibitors, alamar blue (AID 488966); assay type: functional
[19] = biological target: T6, Replicative DNA helicase DnaB (Mycobacterium tuberculosis, UniProt P9WMR3); assay: DnaB intein splicing inhibitors, dose response, biochemical, cell-free fluorescence (AID 449749); assay type: functional
T6 sequence (P9WMR3 whole entry): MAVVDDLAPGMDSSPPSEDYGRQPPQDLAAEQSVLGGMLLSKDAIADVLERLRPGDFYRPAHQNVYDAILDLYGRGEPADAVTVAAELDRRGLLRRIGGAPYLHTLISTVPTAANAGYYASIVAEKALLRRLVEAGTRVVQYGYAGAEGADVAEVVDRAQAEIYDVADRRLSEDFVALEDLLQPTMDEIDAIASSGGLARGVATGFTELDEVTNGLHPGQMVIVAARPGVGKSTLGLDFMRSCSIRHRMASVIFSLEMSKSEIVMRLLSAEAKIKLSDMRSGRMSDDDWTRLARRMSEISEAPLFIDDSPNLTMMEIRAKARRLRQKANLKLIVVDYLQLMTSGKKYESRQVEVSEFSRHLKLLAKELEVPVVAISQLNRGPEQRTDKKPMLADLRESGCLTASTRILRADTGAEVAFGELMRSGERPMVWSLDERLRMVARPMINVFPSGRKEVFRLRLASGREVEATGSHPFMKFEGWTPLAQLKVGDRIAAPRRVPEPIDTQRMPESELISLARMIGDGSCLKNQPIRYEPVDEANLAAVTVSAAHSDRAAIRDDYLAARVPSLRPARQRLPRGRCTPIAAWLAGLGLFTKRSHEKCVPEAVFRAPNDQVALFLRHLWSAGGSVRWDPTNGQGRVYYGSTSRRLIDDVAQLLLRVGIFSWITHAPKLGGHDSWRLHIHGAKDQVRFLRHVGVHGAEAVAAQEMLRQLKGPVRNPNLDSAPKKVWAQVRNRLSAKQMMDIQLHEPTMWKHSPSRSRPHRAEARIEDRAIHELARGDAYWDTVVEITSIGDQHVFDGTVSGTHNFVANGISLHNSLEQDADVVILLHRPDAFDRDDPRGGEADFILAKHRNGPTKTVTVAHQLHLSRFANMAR

[20] = biological target: G-protein coupled receptor 35 (Homo sapiens, UniProt Q9HC97); assay: GPR35 antagonists blocking zaprinast-driven arrestin recruitment, primary screen, imaging, U2OS, beta-arrestin-GFP, zaprinast agonist (AID 2058); assay type: functional;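 also: antagonist potency meaning inhibition of agonist-induced arrestin redistribution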
Sequence of G-protein coupled receptor 35 (Q9HC97 whole entry): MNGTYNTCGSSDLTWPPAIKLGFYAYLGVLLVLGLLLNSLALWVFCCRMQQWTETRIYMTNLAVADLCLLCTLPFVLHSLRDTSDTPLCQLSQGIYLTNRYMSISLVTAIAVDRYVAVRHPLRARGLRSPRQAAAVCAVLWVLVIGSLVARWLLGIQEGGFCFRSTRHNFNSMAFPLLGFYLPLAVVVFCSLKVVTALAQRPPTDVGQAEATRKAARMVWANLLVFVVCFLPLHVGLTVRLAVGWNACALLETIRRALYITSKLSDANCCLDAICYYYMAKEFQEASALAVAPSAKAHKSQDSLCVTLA

Protein RecA = biological target: T7, Protein RecA (Mycobacterium tuberculosis, UniProt P9WHJ3); assay: Fluorescence Cell-Free Homogeneous Dose Retest to Identify Inhibitors of RecA-Intein Splicing Activity. [Related pubchem assays (depositor defined):AID2097, AID2223, AID489010, AID492950]; assay type: functional
T7 sequence (P9WHJ3 whole entry): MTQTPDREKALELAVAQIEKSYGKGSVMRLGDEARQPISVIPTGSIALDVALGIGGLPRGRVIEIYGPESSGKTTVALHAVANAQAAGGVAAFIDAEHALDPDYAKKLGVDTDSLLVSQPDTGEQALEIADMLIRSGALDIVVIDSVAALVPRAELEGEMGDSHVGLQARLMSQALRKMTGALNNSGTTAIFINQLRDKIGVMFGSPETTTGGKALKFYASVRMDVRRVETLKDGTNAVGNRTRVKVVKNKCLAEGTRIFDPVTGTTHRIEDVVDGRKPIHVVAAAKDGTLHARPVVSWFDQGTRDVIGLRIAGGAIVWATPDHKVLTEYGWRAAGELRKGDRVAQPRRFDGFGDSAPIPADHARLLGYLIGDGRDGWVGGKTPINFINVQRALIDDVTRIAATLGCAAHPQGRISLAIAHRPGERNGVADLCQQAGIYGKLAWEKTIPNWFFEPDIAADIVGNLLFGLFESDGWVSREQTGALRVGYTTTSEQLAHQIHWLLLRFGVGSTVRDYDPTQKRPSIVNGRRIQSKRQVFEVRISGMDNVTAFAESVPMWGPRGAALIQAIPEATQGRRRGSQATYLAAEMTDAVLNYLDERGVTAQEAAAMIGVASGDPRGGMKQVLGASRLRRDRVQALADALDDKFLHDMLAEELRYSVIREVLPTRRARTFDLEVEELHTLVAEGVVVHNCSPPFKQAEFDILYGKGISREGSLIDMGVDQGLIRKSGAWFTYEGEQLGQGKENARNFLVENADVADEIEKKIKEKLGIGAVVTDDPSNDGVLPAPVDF

Sequence of Dual specificity protein phosphatase 3 (P51452 whole entry): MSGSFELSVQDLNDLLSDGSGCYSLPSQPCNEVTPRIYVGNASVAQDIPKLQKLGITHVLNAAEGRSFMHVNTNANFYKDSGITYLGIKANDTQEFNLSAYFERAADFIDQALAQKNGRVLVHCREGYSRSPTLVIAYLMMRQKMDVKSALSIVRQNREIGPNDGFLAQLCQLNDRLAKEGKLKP

## CN1C(=O)C(=Cc2ccc(N3CCCC3)c([N+](=O)[O-])c2)C(=O)N(C)C1=O
[1]
  Ki: 24.5 µM (inactive)

## Oc1ccc(Oc2ccc(O)cc2)cc1
Large T antigen
  IC50: 37.7 µM (active)

## CC(C)(C)c1ccc(CSc2nnc(-c3ccccn3)n2Cc2ccco2)cc1
[2]
  EC50: 1.02 µM
[3]
  IC50: > 32 µM (inactive)
Mu-type opioid receptor [4]
  EC50: > 32 µM (inactive)
[5]
  IC50: > 32 µM (inactive)
[6]
  EC50: > 32 µM (inactive)
[7]
  EC50: 2.18 µM
Mu-type opioid receptor [8]
  IC50: > 32 µM (inactive)

## Cc1ccc(C(=O)O)cc1N1C(=O)c2cccc3c([N+](=O)[O-])ccc(c23)C1=O
Caspase-6
  AC50: 10.3 µM (active)
CHO
  IC50: 22.4 µM (inactive)
ORF 73
  AC50: 35 µM (active)
HeLa
  AC50: 67.1 µM (active)

## CCCCCOC(=O)c1[nH]c2c(c1C)C(=O)CC(c1ccco1)C2 (configuration not stated)
[9]
  IC50: 0.101 µM (active)
[10]
  EC50: 0.133 µM (active)
cells
  EC50: 0.179 µM (active)
[11]
  EC50: 9.81 µM (active)
[12]
  EC50: 0.198 µM (active)
[13]
  AC50: 3.96 µM (active)
[14]
  EC50: < 0.1 µM (active)
[15]
  AC50: 33.3 µM (active)
[16]
  AC50: 1.49 µM (active)
[17]
  IC50: > 80 µM (inactive)

## CC/C(=C(/c1ccccc1)c1ccc(OCC[N+](C)(C)C)cc1)c1ccccc1
[18]
  IC50: > 150 µM (active)

## CC1(CC(=O)N/N=C/c2ccc(OCc3ccc(Cl)cc3Cl)cc2)OCCCO1
[19]
  AC50: 3.09 µM (active)
[20]
  IC50: < 0.5 µM (active)
Protein RecA
  EC50: 11.1 µM (active)
